Consider 1 molecule from paper PMC6368403, “Identification of a bilirubin receptor that may mediate a component of cholestatic itch” (eLife, 2019).

Test [1] deals with murine peritoneal mast cells. Put plainly: Mouse peritoneal mast cell histamine release assay. Conditions: 100 µM bilirubin. The test is classed as cell-based. How it is done: Adult male mice 8–12 weeks of age were sacrificed through CO2 inhalation. A total of 25 mL of mast cell dissociation media (MCDM; HBSS with 3% fetal bovine serum and 10 mM HEPES, pH 7.2) was chilled on ice before being used to make two sequential peritoneal lavages. Lavages were combined and spun at 200 g. […] Mast cells were recovered in the pellet. Mast cells were re-suspended in DMEM with 10% fetal bovine serum (FBS) and 25 ng/mL recombinant mouse stem cell factor (Sigma). Mast cells were purified as described and allowed to recover for 2 hr at 37°C. Cells were then seeded in 96-well plates coated with […] fibronectin at 300 cells/well. Plates were incubated at 37°C for 45 min before assay. For the assay, all compounds tested were diluted in CIB. Five minutes after compound addition, supernatant was aspirated and frozen at −80°C until histamine levels were determined with an HTRF histamine assay kit (Cisbio Assays) according to the manufacturer’s instructions.

The target of the next test is T1, MRGPRA1 (Mus musculus, UniProt Q91WW5).
T1 construct: expressed in transfected cells
T1 sequence (Q91WW5 1-304): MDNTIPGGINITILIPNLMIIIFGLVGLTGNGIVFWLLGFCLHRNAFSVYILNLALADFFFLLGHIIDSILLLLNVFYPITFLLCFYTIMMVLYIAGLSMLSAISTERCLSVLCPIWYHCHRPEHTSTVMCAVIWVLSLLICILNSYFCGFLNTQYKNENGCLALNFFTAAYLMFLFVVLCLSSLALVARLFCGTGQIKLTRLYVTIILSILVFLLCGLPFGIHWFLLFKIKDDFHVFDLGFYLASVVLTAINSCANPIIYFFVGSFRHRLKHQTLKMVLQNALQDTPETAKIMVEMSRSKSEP
Put plainly: [35S]GTPγS binding to MRGPRA1 membrane complexes. The test is classed as biochemical. As to conditions: 50 μM bilirubin. On the procedure:
(§1) MRGPR activation was determined by measuring binding of a radiolabelled and non-hydrolyzable form of GTP, [^35S]guanosine-5’-(γ-thio)triphosphate ([^35S]GTPγS) as previously described ([Vasavda et al., 2017]). Briefly, 10 µg of crude membrane fractions were diluted into 175 µL assay buffer (50 mM HEPES, 5 mM MgCl2, 100 mM NaCl, 1 mM EDTA, 0.1% […]) supplemented with 10 µM GDP and incubated at room temperature for 5 min. Membranes were then incubated an additional 1 min in a final volume of 199 μL assay buffer supplemented with 50 μM bilirubin. Samples were then brought to 200 μL with the addition of 10 nM [^35S]GTPγS. Samples were incubated for 2 hr at 4°C with gentle agitation. The experiment was terminated by rapid filtration onto GF/B filters and washed three times with wash buffer (50 mM Tris-HCl, 5 mM MgCl2, and 50 mM NaCl at pH 7.4). Filters were then immersed in scintillation cocktail and counted. Nonspecific binding was determined by competition with 10 μM unlabelled GTPγS. GTPγS binding assays were performed as two independent experiments, in triplicate.

A further test has as its target T2, MRGPRX4 (Homo sapiens, UniProt Q96LA9).
T2 construct: expressed in transfected cells
Put plainly: [35S]GTPγS binding to MRGPRX4 membrane complexes. Type of test: biochemical. As to conditions: 50 μM bilirubin. On the procedure:
as §1

A further test has as its system DRG neurons. Put plainly: Ca2+ imaging of cultured DRG neurons. The test is classed as cell-based, mouse. Conditions: for Percent activated neurons: 50 µM bilirubin (Fig 3H). On the procedure: All cultured cells were maintained in DMEM supplemented with 10% FBS and 1% Penicillin/Streptomycin at 37°C, 5% CO2. […] Cells were imaged in calcium imaging buffer (CIB; 10 mM HEPES, 1.2 mM NaHCO3, 130 mM NaCl, 3 mM KCl, 2.5 mM CaCl2, 0.6 mM MgCl2, 20 mM glucose, and 20 mM sucrose at pH 7.4 and 290–300 mOsm). To monitor changes in intracellular [Ca^2+] ([Ca^2+]i), cells were loaded with either Fura 2-AM (HEK293 cells) or Fluo 4-AM (DRG neurons and mast cells) for 30 min in the dark at 37°C in CIB just prior to imaging. With Fura 2-AM, emission at 510 nm was monitored from excitation at both 340 nm and 380 nm. With Fluo 4-AM, emission at 520 nm was monitored from excitation at 488 nm. Cells were identified as responding if the intracellular [Ca^2+] rose by either 50% compared to baseline or 50% compared to the [Ca^2+]i change assayed during addition of 50 mM KCl (neurons only). Damaged, detached, high-baseline, and motion-activated cells were excluded from analysis.
DRGs were incubated with Fluo-4 AM 24 hr after dissociation (native genotype) or 48 hr after dissociation (virally transduced). Unless otherwise noted, cells were imaged for 20 seconds to establish a baseline before compounds were added. After 30 s, a 2 min wash was applied before addition of another substances. At the end of every imaging trial, 50 mM KCl was added as a positive control. […] For ruthenium red inhibitor experiments, neurons were incubated with 10 µM ruthenium red for 5 min prior to imaging. Percentage activated was determined as earlier described.
DRG neurons from all spinal levels were collected in cold DH10 media (90% Dulbecco’s modified Eagle’s medium (DMEM)/F-12, 10% FBS, penicillin (100 U/mL), and streptomycin (100 μg/mL)). DRGs were digested with a dispase (5 mg/ml)/collagenase type I (1 mg/ml) enzyme mixture at 37°C for 45 min. After trituration, cells were spun at 300 g and re-suspended in DH10 before being plated on glass coverslips coated with poly-D-lysine (0.5 mg/ml) and laminin (10 μg/ml, Invitrogen). DRGs were cultured with DH10 supplemented with 50 ng/mL NGF at 37°C.

Each structure is given as a SMILES string. Where “and” joins values, the source holds several entries; their conditions need not be identical. Identical values can stand only once.

T2 sequence (Q96LA9 whole entry): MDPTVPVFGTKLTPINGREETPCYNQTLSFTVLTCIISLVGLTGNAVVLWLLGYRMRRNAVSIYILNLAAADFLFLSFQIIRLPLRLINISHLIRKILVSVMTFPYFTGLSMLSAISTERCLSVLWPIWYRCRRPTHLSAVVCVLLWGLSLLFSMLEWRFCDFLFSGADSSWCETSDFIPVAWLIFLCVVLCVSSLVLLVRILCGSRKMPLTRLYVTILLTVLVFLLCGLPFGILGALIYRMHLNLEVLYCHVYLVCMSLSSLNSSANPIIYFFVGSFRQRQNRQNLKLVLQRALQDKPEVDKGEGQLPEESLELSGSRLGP

For the molecule `C=CC1=C(C)/C(=C/c2[nH]c(Cc3[nH]c(/C=C4\NC(=O)C(C)=C4C=C)c(C)c3CCC(=O)O)c(CCC(=O)O)c2C)NC1=O` [bilirubin, bilirubin IXα], in test [1], the “Mast cell histamine release” value is on record as “did not elicit a calcium response or induce appreciable histamine release”. Further, the “GTP binding to MRGPRA1 membrane complexes” value at MRGPRA1 is listed as “increased GTP binding”. For the same molecule, the “[35S]GTPγS binding” value on MRGPRA1 (MRGPRA1 membrane complexes (Fig 2K)) is 197 and 184 and 159; on MRGPRX4 (MRGPRX4 membrane complexes (Fig 2K)), 175 and 229 and 223. The “GTP binding to MRGPRX4 membrane complexes” value at MRGPRX4 is “increased GTP binding”. In addition, the Percent activated neurons in the test with DRG neurons (A1 KO DRG) was 1.8%; with DRG neurons (Mrgpr-cluster KO DRG) it was 1.9%; in the test on DRG neurons (WT DRG), “approximately 5%”; in the test on DRG neurons (WT DRG, listed as Bilirubin), 5.43%. Further, the “Percent activated A3+ neurons” value in the test with DRG neurons (Tg(Mrgpra3-Cre);lsl-tdTomato neurons, 50 µM bilirubin (Fig 4D)) was 51.4%.
